Measurements taken from ChEMBL document CHEMBL5614424, “Natural Product-Inspired Discovery of Naphthoquinone-Furo-Piperidine Derivatives as Novel STAT3 Inhibitors for the Treatment of Triple-Negative Breast Cancer” (J Med Chem, 2024).
Calls of active or inactive are those of the source. The rule behind the calls is not given here.

Legend:
[1] = Cmax in male rat at 10 mg/kg, po measured upto 24 hrs by LC/MS/MS analysis; format: ADME, organism-based; settings: in vivo
[2] = Tmax in male rat at 10 mg/kg, ip measured upto 24 hrs by LC/MS/MS analysis; format: ADME, organism-based; settings: in vivo
[3] = Cmax in male rat at 5 mg/kg, iv measured upto 24 hrs by LC/MS/MS analysis; format: ADME, organism-based; settings: in vivo
[4] = Tmax in male rat at 5 mg/kg, iv measured upto 24 hrs by LC/MS/MS analysis; format: ADME, organism-based; settings: in vivo
[5] = AUC(0 to infinity) in male rat at 5 mg/kg, iv measured upto 24 hrs by LC/MS/MS analysis; format: ADME, organism-based; settings: in vivo
[6] = AUC(0 to infinity) in male rat at 10 mg/kg, ip measured upto 24 hrs by LC/MS/MS analysis; format: ADME, organism-based; settings: in vivo
[7] = Tmax in male rat at 10 mg/kg, po measured upto 24 hrs by LC/MS/MS analysis; format: ADME, organism-based; settings: in vivo
MDA-MB-468 [8] = assay: Antiproliferative activity against human MDA-MB-468 cells assessed as cell viability incubated for 48 hrs measured after additional incubation with MTT; format: functional, cell-based; settings: MDA-MB-468, 48 h
[9] = AUC(0 to infinity) in male rat at 10 mg/kg, po measured upto 24 hrs by LC/MS/MS analysis; format: ADME, organism-based; settings: in vivo
L02 = assay: Antiproliferative activity against human L02 cells assessed as cell viability incubated for 48 hrs measured after additional incubation with MTT; format: functional, cell-based; settings: L02, 48 h
[10] = AUC(0 to t) in male rat at 10 mg/kg, po measured upto 24 hrs by LC/MS/MS analysis; format: ADME, organism-based; settings: in vivo
[11] = Half life in male rat at 10 mg/kg, po measured upto 24 hrs by LC/MS/MS analysis; format: ADME, organism-based; settings: in vivo
[12] = Half life in male rat at 5 mg/kg, iv measured upto 24 hrs by LC/MS/MS analysis; format: ADME, organism-based; settings: in vivo
MDA-MB-231 [13] = assay: Antiproliferative activity against human MDA-MB-231 cells assessed as cell viability incubated for 48 hrs measured after additional incubation with MTT; format: functional, cell-based; settings: MDA-MB-231, 48 h
[14] = Oral bioavailability in male rat at 10 mg/kg measured upto 24 hrs by LC/MS/MS analysis; format: ADME, organism-based; settings: in vivo
[15] = Half life in male rat at 10 mg/kg, ip measured upto 24 hrs by LC/MS/MS analysis; format: ADME, organism-based; settings: in vivo
[16] = AUC(0 to t) in male rat at 5 mg/kg, iv measured upto 24 hrs by LC/MS/MS analysis; format: ADME, organism-based; settings: in vivo
[17] = molecular target: Signal transducer and activator of transcription 3 (Homo sapiens) (UniProt P40763); assay: Suppression of STAT3 activation in human MDA-MB-231 cell assessed as decrease in phosphorylated STAT3 (p-STAT3 Tyr705) level at 3 uM measured after 24 hrs by Western blot analysis; format: cell-based
[18] = AUC(0 to t) in male rat at 10 mg/kg, ip measured upto 24 hrs by LC/MS/MS analysis; format: ADME, organism-based; settings: in vivo
[19] = Cmax in male rat at 10 mg/kg, ip measured upto 24 hrs by LC/MS/MS analysis; format: ADME, organism-based; settings: in vivo
[20] = molecular target: Signal transducer and activator of transcription 3 (Homo sapiens) (UniProt P40763); assay: Suppression of STAT3 activation in human MDA-MB-468 cell assessed as decrease in phosphorylated STAT3 (p-STAT3 Tyr705) level at 3 uM measured after 24 hrs by Western blot analysis; format: cell-based
[21] = Antiproliferative activity against human MCF-10A cells assessed as cell viability incubated for 48 hrs measured after additional incubation with MTT; format: toxicity, cell-based
MDA-MB-468 [22] = assay: Decrease in STAT3 level in human MDA-MB-468 cell at 3 uM measured after 24 hrs by Western blot analysis; format: functional, cell-based
MDA-MB-231 [23] = assay: Decrease in STAT3 level in human MDA-MB-231 cell at 3 uM measured after 24 hrs by Western blot analysis; format: functional, cell-based

Signal transducer and activator of transcription 3 (Homo sapiens), sequence (P40763 whole entry): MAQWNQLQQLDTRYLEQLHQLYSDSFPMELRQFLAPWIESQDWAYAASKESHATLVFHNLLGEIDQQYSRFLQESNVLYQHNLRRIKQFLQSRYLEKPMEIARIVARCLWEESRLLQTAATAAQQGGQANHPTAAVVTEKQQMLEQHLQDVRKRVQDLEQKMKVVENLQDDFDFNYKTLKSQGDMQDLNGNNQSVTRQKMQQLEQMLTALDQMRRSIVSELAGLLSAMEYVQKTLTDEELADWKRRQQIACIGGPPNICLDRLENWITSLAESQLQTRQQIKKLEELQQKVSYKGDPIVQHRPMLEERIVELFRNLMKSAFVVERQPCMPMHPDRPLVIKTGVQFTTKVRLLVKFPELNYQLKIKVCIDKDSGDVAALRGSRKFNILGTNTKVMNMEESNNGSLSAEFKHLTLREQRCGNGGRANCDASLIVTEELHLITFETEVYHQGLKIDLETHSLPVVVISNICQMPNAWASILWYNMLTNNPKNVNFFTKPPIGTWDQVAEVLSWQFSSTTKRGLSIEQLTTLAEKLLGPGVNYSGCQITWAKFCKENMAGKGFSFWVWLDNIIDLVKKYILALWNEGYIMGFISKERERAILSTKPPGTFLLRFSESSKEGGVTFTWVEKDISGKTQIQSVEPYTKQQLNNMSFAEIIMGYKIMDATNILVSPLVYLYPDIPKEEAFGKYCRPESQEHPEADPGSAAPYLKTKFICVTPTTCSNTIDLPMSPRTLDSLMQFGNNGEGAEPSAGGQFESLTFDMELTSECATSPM

O=C1C(=O)c2c(oc3c2CCN(CCO)C3)-c2ccccc21
Cmax [1]: 34.4 ng/mL
Tmax [2]: 0.7 h
Cmax [3]: 237 ng/mL
Tmax [4]: 4.8 min
AUC(0-inf) [5]: 645 ng·h/mL
AUC(0-inf) [6]: 241 ng·h/mL
Tmax [7]: 1.1 h
IC50 (MDA-MB-468 [8]): 1.57 µM
AUC(0-inf) [9]: 50.1 ng·h/mL
IC50 (L02): 3.91 µM
AUC(0-t) at 24 h [10]: 47.2 ng·h/mL
half-life [11]: 4 h
half-life [12]: 2.4 h
IC50 (MDA-MB-231 [13]): 1.19 µM
bioavailability [14]: 3.8%
half-life [15]: 3.5 h
AUC(0-t) at 24 h [16]: 611 ng·h/mL
inhibition [17]: Active
AUC(0-t) at 24 h [18]: 219 ng·h/mL
Cmax [19]: 107 ng/mL
inhibition [20]: Active
IC50 at 48 h [21]: 2.89 µM

CNC(=O)CN1CCc2c(oc3c2C(=O)C(=O)c2ccccc2-3)C1
IC50 (MDA-MB-468 [8]): 4.78 µM
IC50 (MDA-MB-231 [13]): 6.51 µM

O=C1C(=O)c2c(oc3c2CCN(CCCO)C3)-c2ccccc21
Activity (MDA-MB-468 [22]): Active
Activity (MDA-MB-231 [23]): Active
IC50 (MDA-MB-468 [8]): 2.32 µM
IC50 (L02): 15.5 µM
IC50 (MDA-MB-231 [13]): 2.3 µM
inhibition [17]: Active
inhibition [20]: Active
IC50 at 48 h [21]: 11.1 µM

CNC(=O)[C@H](Cc1ccc(O)cc1)N1CCc2c(oc3c2C(=O)C(=O)c2ccccc2-3)C1
IC50 (MDA-MB-468 [8]): 10.4 µM
IC50 (MDA-MB-231 [13]): 7.26 µM

COC(=O)CN1CCc2c(oc3c2C(=O)C(=O)c2ccccc2-3)C1
IC50 (MDA-MB-468 [8]): 2.42 µM
IC50 (L02): 5.46 µM
IC50 (MDA-MB-231 [13]): 2.5 µM
IC50 at 48 h [21]: 4.89 µM

CC(=O)N1CCc2c(oc3c2C(=O)C(=O)c2ccccc2-3)C1
IC50 (MDA-MB-468 [8]): 3.89 µM
IC50 (L02): 16.6 µM
IC50 (MDA-MB-231 [13]): 4.57 µM
inhibition [17]: Active
inhibition [20]: Active
IC50 at 48 h [21]: 17.8 µM

O=C1C(=O)c2c(oc3c2CCN(C(=O)c2cccs2)C3)-c2ccccc21
IC50 (MDA-MB-468 [8]): 12.9 µM
IC50 (MDA-MB-231 [13]): > 20 µM

COC(=O)CC[C@@H](C(=O)OC)N1CCc2c(oc3c2C(=O)C(=O)c2ccccc2-3)C1
IC50 (MDA-MB-468 [8]): 12.2 µM
IC50 (MDA-MB-231 [13]): 12.7 µM

O=C1C(=O)c2c(oc3c2CCN([C@H](CO)Cc2ccc(O)cc2)C3)-c2ccccc21
IC50 (MDA-MB-468 [8]): 13 µM
IC50 (MDA-MB-231 [13]): 13.6 µM

CN1CCN(C(=O)N2CCc3c(oc4c3C(=O)C(=O)c3ccccc3-4)C2)CC1
IC50 (MDA-MB-468 [8]): 5.84 µM
IC50 (MDA-MB-231 [13]): 6.08 µM

COC(=O)[C@H](CC(C)C)N1CCc2c(oc3c2C(=O)C(=O)c2ccccc2-3)C1
IC50 (MDA-MB-468 [8]): > 20 µM
IC50 (MDA-MB-231 [13]): > 20 µM

O=C1C(=O)c2c(oc3c2CCN(C(=O)N2CCOCC2)C3)-c2ccccc21
IC50 (MDA-MB-468 [8]): 5.41 µM
IC50 (L02): > 20 µM
IC50 (MDA-MB-231 [13]): 6.43 µM
IC50 at 48 h [21]: 16.8 µM

CC(=O)c1cc2c(o1)C(=O)C(=O)c1ccccc1-2
IC50 (MDA-MB-468 [8]): 2.51 µM
IC50 (L02): 7.25 µM
IC50 (MDA-MB-231 [13]): 1.43 µM
IC50 at 48 h [21]: 6.23 µM

COC(=O)[C@H](C)N1CCc2c(oc3c2C(=O)C(=O)c2ccccc2-3)C1
IC50 (MDA-MB-468 [8]): 2.36 µM
IC50 (MDA-MB-231 [13]): 3.14 µM
inhibition [17]: inactive
inhibition [20]: inactive
IC50 at 48 h [21]: 18.2 µM

O=C1C(=O)c2c(oc3c2CCN([C@H](CO)Cc2ccccc2)C3)-c2ccccc21
IC50 (MDA-MB-468 [8]): > 10 µM
IC50 (MDA-MB-231 [13]): 9.97 µM

CN(C)C(=O)N1CCc2c(oc3c2C(=O)C(=O)c2ccccc2-3)C1
Activity (MDA-MB-468 [22]): Active
Activity (MDA-MB-231 [23]): Active
IC50 (MDA-MB-468 [8]): 2.35 µM
IC50 (L02): > 20 µM
IC50 (MDA-MB-231 [13]): 4 µM
inhibition [17]: Active
inhibition [20]: Active
IC50 at 48 h [21]: > 20 µM

O=C1C(=O)c2c(oc3c2CCN(C(=O)c2cccc(C(F)(F)F)c2)C3)-c2ccccc21
IC50 (MDA-MB-468 [8]): > 20 µM
IC50 (MDA-MB-231 [13]): 12.5 µM

CNC(=O)[C@H](C)N1CCc2c(oc3c2C(=O)C(=O)c2ccccc2-3)C1
Activity (MDA-MB-468 [22]): Active
Activity (MDA-MB-231 [23]): Active
IC50 (MDA-MB-468 [8]): 6.41 µM
IC50 (L02): > 20 µM
IC50 (MDA-MB-231 [13]): 4.14 µM
inhibition [17]: Active
inhibition [20]: Active
IC50 at 48 h [21]: 17.6 µM

COC(=O)CCCN1CCc2c(oc3c2C(=O)C(=O)c2ccccc2-3)C1
IC50 (MDA-MB-468 [8]): 9.12 µM
IC50 (MDA-MB-231 [13]): 6.89 µM

O=C1C(=O)c2c(oc3c2CCN(C(=O)c2ccco2)C3)-c2ccccc21
IC50 (MDA-MB-468 [8]): 12.9 µM
IC50 (MDA-MB-231 [13]): 12.4 µM

C[C@@H](CO)N1CCc2c(oc3c2C(=O)C(=O)c2ccccc2-3)C1
IC50 (MDA-MB-468 [8]): 5.42 µM
IC50 (L02): 7.87 µM
IC50 (MDA-MB-231 [13]): 3.41 µM
inhibition [17]: Active
inhibition [20]: Active
IC50 at 48 h [21]: 7.98 µM
